Results from patent US20150307520A1, “NOVEL HETEROARYL AND HETEROCYCLE COMPOUNDS, COMPOSITIONS AND METHODS THEREOF” (HUTCHISON MEDIPHARMA LIMITED, priority 2012, published 2015).

Assays:
Assay type in all cases: biochemical
[1] = biological target: p110β/p85α (Homo sapiens, UniProt P42338); test: Transcreener KINASE Assay, kinase inhibition of p110β/p85α; conditions: for PI3Kβ IH % @ 1 uM: 1 uM test compound; for IC50: read-out: PI3Kβ IC50
Procedure: (§1) PI3K kinases including p110α/p85α, p110δ/p85α and p110γ are purchased from Invitrogen, and p110β/p85α is from Millipore.
(§2) Primary screening data and IC50 values are measured using Transcreener™ KINASE Assay (Bellbrook, Catalog #3003-10K). […] It is a universal, homogenous, high throughput screening (HTS) technology using a far-red, competitive fluorescence polarization immunoassay based on the detection of ADP to monitor the activity of enzymes that catalyze group transfer reactions. Briefly, the Transcreener KINASE Assay is designed as a simple two-part, endpoint assay.
(§3) In the first step, the 25 ul kinase reaction is performed by preparing a reaction mixture containing 5 ul test compound (2% DMSO final concentration), 10 ul kinase, buffer (50 mM HEPES, 100 mM NaCl, 1 mM EGTA, 0.03% CHAPS, 3 mM MgCl2, and freshly supplemented 1 mM DTT), and 10 ul 30 uM PIP2/10 uM ATP. The plate is sealed and incubated for 80 min at room temperature. Next, 25 ul ADP detection mix is added per well. The plate is sealed again and incubated for 60 min at room temperature, and then measure fluorescence polarization by Tecan Infinite F500 Reader.
(§4) Data is analyzed and IC50s are generated using the add-in software for Microsoft Excel, Xlfit™ (version 2.0). IH %=(ADP amount under 2% DMSO-ADP amount under test compound)/ADP amount under 2% DMSO.

[2] = biological target: p110δ/p85α (Homo sapiens, UniProt O00329); test: Transcreener KINASE Assay, kinase inhibition of p110δ/p85α; conditions: for PI3Kδ IH % @ 1 uM: 1 uM test compound; for IC50: read-out: PI3Kδ IC50
Procedure: as §1, §2, §3, §4

[3] = biological target: p110γ (Homo sapiens, UniProt P48736); test: Transcreener KINASE Assay, kinase inhibition of p110γ; conditions: for PI3Kγ IH % @ 1 uM: 1 uM test compound; for IC50: read-out: PI3Kγ IC50
Procedure: Kinase Inhibition assays of p110α/p85α, p110β/p85α, p110δ/p85α and p110γ PI3K kinases including p110α/p85α, p110δ/p85α and p110γ are purchased from Invitrogen, and p110β/p85α is from Millipore. Primary screening data and IC50 values are measured using Transcreener™ KINASE Assay (Bellbrook, Catalog #3003-10K). […] It is a universal, homogenous, high throughput screening (HTS) technology using a far-red, competitive fluorescence polarization immunoassay based on the detection of ADP to monitor the activity of enzymes that catalyze group transfer reactions. Briefly, the Transcreener KINASE Assay is designed as a simple two-part, endpoint assay. […] The plate is sealed and incubated for 80 min at room temperature. Next, 25 ul ADP detection mix is added per well. The plate is sealed again and incubated for 60 min at room temperature, and then measure fluorescence polarization by Tecan Infinite F500 Reader. Data is analyzed and IC50s are generated using the add-in software for Microsoft Excel, Xlfit™ (version 2.0).

p110δ/p85α, sequence (O00329 whole entry): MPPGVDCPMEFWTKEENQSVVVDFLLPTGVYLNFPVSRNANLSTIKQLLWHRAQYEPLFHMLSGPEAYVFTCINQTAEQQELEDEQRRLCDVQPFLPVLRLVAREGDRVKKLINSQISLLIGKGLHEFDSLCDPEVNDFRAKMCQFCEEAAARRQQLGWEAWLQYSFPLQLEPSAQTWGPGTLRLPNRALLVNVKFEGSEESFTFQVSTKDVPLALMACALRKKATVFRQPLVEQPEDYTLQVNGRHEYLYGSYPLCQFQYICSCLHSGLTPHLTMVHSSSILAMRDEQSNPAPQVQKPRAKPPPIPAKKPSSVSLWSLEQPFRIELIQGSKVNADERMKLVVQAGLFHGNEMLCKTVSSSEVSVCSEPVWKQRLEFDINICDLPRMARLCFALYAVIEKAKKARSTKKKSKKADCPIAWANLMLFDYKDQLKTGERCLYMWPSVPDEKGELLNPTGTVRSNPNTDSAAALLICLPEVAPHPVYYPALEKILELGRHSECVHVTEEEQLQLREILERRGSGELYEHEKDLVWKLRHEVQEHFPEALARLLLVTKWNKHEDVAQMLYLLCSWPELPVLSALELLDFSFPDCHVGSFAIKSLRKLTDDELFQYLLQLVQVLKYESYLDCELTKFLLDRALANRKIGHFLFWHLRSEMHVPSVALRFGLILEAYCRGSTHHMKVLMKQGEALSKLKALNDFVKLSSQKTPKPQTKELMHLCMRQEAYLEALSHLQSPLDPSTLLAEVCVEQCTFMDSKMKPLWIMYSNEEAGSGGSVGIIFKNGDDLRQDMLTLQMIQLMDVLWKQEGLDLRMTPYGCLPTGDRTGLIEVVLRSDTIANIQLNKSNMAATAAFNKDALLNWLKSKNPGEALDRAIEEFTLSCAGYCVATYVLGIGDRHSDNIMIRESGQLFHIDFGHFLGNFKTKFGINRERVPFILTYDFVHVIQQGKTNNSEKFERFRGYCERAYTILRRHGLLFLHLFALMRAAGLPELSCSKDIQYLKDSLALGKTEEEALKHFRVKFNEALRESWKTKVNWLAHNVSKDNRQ
p110δ/p85α, sequence (P27986 whole entry partner): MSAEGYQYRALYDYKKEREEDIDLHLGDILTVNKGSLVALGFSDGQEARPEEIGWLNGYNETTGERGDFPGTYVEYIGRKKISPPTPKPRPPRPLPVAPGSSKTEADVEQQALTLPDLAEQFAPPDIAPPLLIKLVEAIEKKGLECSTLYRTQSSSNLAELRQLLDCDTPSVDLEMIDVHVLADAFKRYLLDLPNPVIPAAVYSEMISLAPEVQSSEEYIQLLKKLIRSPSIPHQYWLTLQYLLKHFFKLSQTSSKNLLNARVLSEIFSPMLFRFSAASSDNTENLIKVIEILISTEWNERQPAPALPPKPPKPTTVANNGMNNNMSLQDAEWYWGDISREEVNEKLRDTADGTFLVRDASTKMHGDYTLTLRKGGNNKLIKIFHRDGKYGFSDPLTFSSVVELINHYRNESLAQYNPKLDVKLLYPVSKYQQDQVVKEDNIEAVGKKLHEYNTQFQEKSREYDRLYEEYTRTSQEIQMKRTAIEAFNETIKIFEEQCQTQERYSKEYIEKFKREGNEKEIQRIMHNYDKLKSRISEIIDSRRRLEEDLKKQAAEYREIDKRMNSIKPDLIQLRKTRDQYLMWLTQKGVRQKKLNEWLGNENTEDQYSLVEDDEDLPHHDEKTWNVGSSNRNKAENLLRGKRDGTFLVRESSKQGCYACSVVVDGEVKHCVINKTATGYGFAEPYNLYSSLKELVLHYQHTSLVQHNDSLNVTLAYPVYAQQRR
p110γ, sequence (P48736 whole entry): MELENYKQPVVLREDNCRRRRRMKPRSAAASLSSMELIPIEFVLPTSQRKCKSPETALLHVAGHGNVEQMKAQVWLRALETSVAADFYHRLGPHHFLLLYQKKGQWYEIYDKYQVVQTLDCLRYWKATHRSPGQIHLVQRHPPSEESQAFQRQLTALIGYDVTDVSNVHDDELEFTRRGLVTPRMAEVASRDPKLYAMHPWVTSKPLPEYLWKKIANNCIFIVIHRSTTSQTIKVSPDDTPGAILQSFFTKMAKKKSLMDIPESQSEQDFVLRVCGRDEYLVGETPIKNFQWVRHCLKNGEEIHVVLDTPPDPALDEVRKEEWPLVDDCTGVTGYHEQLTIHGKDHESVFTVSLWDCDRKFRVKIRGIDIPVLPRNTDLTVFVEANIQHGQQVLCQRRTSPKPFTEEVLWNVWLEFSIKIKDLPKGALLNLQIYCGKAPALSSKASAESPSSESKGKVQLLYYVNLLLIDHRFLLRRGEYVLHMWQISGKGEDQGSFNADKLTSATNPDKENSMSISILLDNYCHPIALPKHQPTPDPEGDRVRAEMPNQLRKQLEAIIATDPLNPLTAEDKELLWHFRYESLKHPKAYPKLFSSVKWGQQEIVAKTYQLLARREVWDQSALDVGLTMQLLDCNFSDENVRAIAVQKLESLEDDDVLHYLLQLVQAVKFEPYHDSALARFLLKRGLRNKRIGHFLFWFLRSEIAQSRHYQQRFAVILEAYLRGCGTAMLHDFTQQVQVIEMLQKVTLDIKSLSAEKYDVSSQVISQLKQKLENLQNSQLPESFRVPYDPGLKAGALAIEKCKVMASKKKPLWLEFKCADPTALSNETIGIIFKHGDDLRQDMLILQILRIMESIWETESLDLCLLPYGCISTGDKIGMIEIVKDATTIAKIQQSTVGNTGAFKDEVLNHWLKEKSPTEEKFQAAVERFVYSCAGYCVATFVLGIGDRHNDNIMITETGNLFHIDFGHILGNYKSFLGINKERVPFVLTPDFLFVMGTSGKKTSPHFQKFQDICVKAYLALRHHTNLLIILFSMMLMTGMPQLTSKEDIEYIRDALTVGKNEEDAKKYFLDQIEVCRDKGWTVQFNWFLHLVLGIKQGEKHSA
p110β/p85α, sequence (P42338 whole entry): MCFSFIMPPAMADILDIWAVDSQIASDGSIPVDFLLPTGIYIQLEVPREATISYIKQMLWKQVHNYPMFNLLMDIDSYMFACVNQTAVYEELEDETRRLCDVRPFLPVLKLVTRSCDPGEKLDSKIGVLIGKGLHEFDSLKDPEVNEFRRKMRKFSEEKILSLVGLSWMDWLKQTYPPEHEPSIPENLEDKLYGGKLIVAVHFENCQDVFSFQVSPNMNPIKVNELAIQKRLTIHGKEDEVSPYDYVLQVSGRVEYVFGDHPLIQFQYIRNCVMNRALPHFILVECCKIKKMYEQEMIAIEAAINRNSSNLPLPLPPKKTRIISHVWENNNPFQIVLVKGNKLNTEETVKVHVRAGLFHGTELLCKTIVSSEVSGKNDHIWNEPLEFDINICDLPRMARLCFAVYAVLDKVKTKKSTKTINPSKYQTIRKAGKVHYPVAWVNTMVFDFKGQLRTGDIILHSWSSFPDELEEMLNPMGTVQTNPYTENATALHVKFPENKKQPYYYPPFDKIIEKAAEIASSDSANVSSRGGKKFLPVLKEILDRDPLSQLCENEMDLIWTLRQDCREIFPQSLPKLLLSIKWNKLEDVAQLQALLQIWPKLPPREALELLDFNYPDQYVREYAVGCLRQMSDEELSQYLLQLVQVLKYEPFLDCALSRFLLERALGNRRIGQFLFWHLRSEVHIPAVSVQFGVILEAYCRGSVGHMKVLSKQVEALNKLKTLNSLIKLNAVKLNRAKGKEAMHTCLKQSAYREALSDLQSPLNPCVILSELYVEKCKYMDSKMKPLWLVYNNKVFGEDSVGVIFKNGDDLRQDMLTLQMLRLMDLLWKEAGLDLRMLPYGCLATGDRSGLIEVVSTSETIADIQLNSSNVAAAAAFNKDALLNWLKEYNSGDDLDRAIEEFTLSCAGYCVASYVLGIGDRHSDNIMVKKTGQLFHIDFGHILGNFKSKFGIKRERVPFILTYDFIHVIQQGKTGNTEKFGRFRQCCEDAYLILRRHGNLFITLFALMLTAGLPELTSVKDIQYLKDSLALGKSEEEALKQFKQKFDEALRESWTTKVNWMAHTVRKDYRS
p110β/p85α, sequence (P27986 2-724 partner): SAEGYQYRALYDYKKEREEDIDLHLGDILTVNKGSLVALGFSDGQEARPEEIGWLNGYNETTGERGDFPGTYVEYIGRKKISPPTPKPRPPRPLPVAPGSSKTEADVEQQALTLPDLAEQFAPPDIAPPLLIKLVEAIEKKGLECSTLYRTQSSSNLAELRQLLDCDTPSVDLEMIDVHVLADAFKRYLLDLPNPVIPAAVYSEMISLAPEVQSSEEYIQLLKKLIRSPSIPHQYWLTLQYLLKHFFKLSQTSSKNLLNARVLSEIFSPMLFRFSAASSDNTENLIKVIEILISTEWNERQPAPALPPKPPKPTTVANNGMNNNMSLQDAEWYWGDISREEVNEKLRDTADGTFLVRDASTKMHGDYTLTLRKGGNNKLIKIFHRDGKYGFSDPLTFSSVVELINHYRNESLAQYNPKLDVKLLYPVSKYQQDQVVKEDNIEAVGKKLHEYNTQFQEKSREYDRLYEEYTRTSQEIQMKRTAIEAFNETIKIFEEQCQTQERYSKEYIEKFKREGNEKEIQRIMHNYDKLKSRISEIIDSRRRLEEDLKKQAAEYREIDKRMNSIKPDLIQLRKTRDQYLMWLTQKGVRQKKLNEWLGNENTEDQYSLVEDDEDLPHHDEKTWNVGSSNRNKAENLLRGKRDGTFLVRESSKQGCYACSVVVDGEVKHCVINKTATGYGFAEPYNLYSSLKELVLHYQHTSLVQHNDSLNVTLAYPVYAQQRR

Row | PI3Kβ IH % @ 1 uM [1] | IC50 [1] | PI3Kδ IH % @ 1 uM [2] | IC50 [2] | PI3Kγ IH % @ 1 uM [3] | IC50 [3] | Compound
1 | 79.0% | 275 nM | 98.0% | 3 nM | 88.6% | 25 nM | CS(=O)(=O)[C@H]1C[C@@H](c2nn3ccc(Cl)c3c(=O)n2-c2ccccc2)N(c2ncnc3[nH]cc(C#N)c23)C1 [Compound 365, 4-((2S,4S)-2-(5-chloro-4-oxo-3-phenyl-3,4-dihydropyrrolo[2,1-f][1,2,4]triazin-2-yl)-4-(methylsulfonyl)pyrrolidin-1-yl)-7H-pyrrolo[2,3-d]pyrimidine-5-carbonitrile]
2 | 80.4% | 298 nM | >100% | 1 nM | >100% |  | N#Cc1cnc(N)nc1N1CCC[C@H]1c1nn2ccc(Cl)c2c(=O)n1-c1ccccc1 [Compound 207]
3 | 80.5% | 218 nM | 100.0% | 5 nM | >100% | 11 nM | CC(=O)c1cnc(N)nc1N1CCCC1c1cn2ccc(Cl)c2c(=O)n1-c1ccccc1 (stereo not drawn) [Compound 321]
4 | 90.9% | 78 nM | 99.5% | 1 nM | 87.6% | 105 nM | COc1ncc(-c2c[nH]c3ncnc(NC(C)c4cc5ncc(Cl)n5c(=O)n4-c4ccccc4)c23)cn1 (stereo not drawn) [Compound 175]
5 | 77.9% | 120 nM | >100% | 1 nM | 97.3% | 9 nM | O=c1c2c(Cl)ccn2nc([C@@H]2CCCN2c2nc(F)nc3[nH]cnc23)n1-c1ccccc1 [Compound 146]
6 | 62.5% |  | >100% | 5 nM | 94.1% | 44 nM | CS(=O)(=O)c1c[nH]c2ncnc(N3CCC[C@H]3c3nn4ccc(Cl)c4c(=O)n3-c3ccccc3)c12 [Compound 144]
7 | 11.4% |  | 80.2% | 140 nM | 34.3% |  | N#Cc1c[nH]c2ncnc(N3CC(F)(F)C[C@H]3c3nn4ccc(Cl)c4c(=O)n3Cc3ccccn3)c12 [Compound 160]
8 | 20.6% |  | 74.5% | 51 nM | >100% | 12 nM | Nc1nc(N2CC[C@H]2c2nn3ccc(Br)c3c(=O)n2-c2ccccc2)n2nccc2n1 [Compound 135]
9 | 17.0% |  | 97.1% | 30 nM | 79.8% | 89 nM | O=c1c2c(CO)ccn2nc([C@@H]2CCCN2c2ncnc3[nH]cnc23)n1-c1ccccc1 [Compound 177, (S)-2-(1-(9H-purin-6-yl)pyrrolidin-2-yl)-5-(hydroxymethyl)-3-phenylpyrrolo[2,1-f][1,2,4]triazin-4(3H)-one]
10 | 65.3% |  | >100% | 1 nM | 94.3% | 4 nM | O=c1c2c(Cl)ccn2nc([C@@H]2CCCN2c2ncnc3[nH]cc(F)c23)n1-c1ccccc1 [Compound 147]
11 | 48.3% |  | 99.3% | 7 nM | 98.2% | 9 nM | CC(=O)c1cnc(N)nc1N1CCC1c1nn2ccc(Cl)c2c(=O)n1-c1ccccn1 (stereo not drawn) [Compound 474]
12 | 29.5% |  | 92.6% | 111 nM | 76.6% | 268 nM | C[S@@+]([O-])c1c[nH]c2ncnc(N3C[C@@H](C#N)C[C@H]3c3nn4ccc(Cl)c4c(=O)n3-c3cccc(F)c3)c12 [Compound 349, (3S,5S)-5-(5-chloro-3-(3-fluorophenyl)-4-oxo-3,4-dihydropyrrolo[2,1-f][1,2,4]triazin-2-yl)-1-(5-((R)-methylsulfinyl)-7H-pyrrolo[2,3-d]pyrimidin-4-yl)pyrrolidine-3-carbonitrile]
13 | 16.3% |  | 68.0% |  | 88.6% | 24 nM | CSc1n[nH]c2ncnc(N3CCC[C@H]3c3nn4ccc(Cl)c4c(=O)n3-c3ccccc3)c12 [Compound 221]
14 | 95.0% | 22 nM | 98.0% | 2 nM | >100% | 12 nM | CC(Nc1ncnc2[nH]cc(C#N)c12)c1cc2ccc(Cl)n2c(=O)n1-c1ccccc1 (stereo not drawn) [Compound 124]
15 | 3.2% |  | 69.0% | 325 nM | 29.5% |  | N#Cc1c[nH]c2ncnc(N3CC[C@H]3c3nn4ccc(Cl)c4c(=O)n3Cc3ccccn3)c12 [Compound 60]
16 | 41.5% |  | 98.8% | 27 nM | 89.5% | 170 nM | CC(C)Cn1c([C@@H]2CCN2c2ncnc3[nH]cc(C#N)c23)nn2ccc(Cl)c2c1=O [Compound 259]
17 | 5.4% |  | 77.6% | 244 nM | 53.7% |  | CC(Nc1ncnc2[nH]cnc12)c1cn2ccc(-c3cnn(C)c3)c2c(=O)n1-c1ccccc1 (stereo not drawn) [Compound 93, 3-(1-(9H-purin-6-ylamino)ethyl)-8-(1-methyl-1H-pyrazol-4-yl)-2-phenylpyrrolo[1,2-a]pyrazin-1(2H)-one]
18 | 28.9% |  | 85.1% | 109 nM | 84.2% | 250 nM | C[S+]([O-])c1c[nH]c2ncnc(N3CC[C@H]3c3nn4ccc(F)c4c(=O)n3-c3ccccc3)c12 (stereo partly drawn) [Compound 204]
19 | 73.4% | 169 nM | 97.3% | 24 nM | 94.3% | 71 nM | CNC(=O)c1c[nH]c2ncnc(N3CCC[C@H]3c3nn4ccc(Cl)c4c(=O)n3-c3ccccc3)c12 [Compound 96]
20 | −3.2% |  | 31.3% |  | 0.6% |  | NC(=O)c1c[nH]c2ncnc(N3CC[C@H]3c3nn4ccc(Cl)c4c(=O)n3-c3ccccc3)c12 [Compound 163]
21 | 46.5% |  | 96.8% | 10 nM | 98.9% | 19 nM | Nc1nc2c(c(N3CCC[C@H]3c3nn4ccc(Cl)c4c(=O)n3-c3ccccc3)n1)C(=O)CCN2 [Compound 242]
22 |  |  | >100% |  | >100% |  | CC(=O)c1cnc(N)nc1N1C[C@H](C)[C@H]1c1nn2ccc(Cl)c2c(=O)n1-c1cc(F)cc(F)c1 [Compound 518]
23 |  |  | >100% | 21 nM | >100% | 13 nM | CC(=O)c1cnc(N)nc1N1CC[C@H]1c1nn2ccc(C#N)c2c(=O)n1-c1ccccc1 [Compound 498]
24 | 37.4% |  |  |  |  |  | N#Cc1cnc(N)nc1N1CCC1c1nn2ccc(Cl)c2c(=O)n1CC1CC1 (stereo not drawn) [Compound 373]
25 | 90.8% | 49 nM |  |  | >100% | 8 nM | CC(Nc1ncnc2[nH]cnc12)c1cn2ccc(Cl)c2c(=O)n1-c1ccccc1 (stereo not drawn) [Compound 87]
26 |  |  | 50.3% |  | 91.6% | 227 nM | Nc1nc(N2CC[C@H]2c2nn3ccc(Cl)c3c(=O)n2-c2ccccc2)c2cccn2n1 [Compound 329, (S)-2-(1-(2-aminopyrrolo[2,1-f][1,2,4]triazin-4-yl)azetidin-2-yl)-5-chloro-3-phenyl-pyrrolo[2,1-f][1,2,4]triazin-4(3H)-one]
27 | 55.70% |  |  |  | 93.5% |  | C[C@H]1CN(c2ncnc(N)c2C#N)C1c1nn2ccc(Cl)c2c(=O)n1-c1ccccc1 (stereo partly drawn) [Compound 494]
28 |  |  |  | 524 nM |  |  | Nc1ncc(C(=O)C(F)(F)F)c(N2CC[C@H]2c2nn3ccc(Cl)c3c(=O)n2-c2ccccc2)n1 [Compound 325]
29 |  |  | >100% |  | >100% |  | CC(=O)c1c(N)ncnc1N1C[C@H](C)[C@H]1c1nn2ccc(Cl)c2c(=O)n1-c1ccccc1 [Compound 509]
30 |  |  | 99.5% |  | >100% |  | CC(=O)c1cnc(N)nc1N1CC[C@H]1c1nn2ccc(Cl)c2c(=O)n1-c1cc(F)cc(F)c1 [Compound 495]
